Test results: publication PMC8175350, “Drug repurposing screens identify chemical entities for the development of COVID-19 interventions” (Nature Communications, 2021)
Where a name gives a salt, the structure may show the parent alone. Read-outs that look alike come from different tables or passages of the source.

Columns and labels:
SARS-CoV-2 [1] = test: microbe, parasite or virus in culture; type: cell-based; details: for Emax: Severe acute respiratory syndrome coronavirus 2, HeLa-ACE2, 24 h, read-out: HeLa-ACE2 CoV-2 Sinf Average; for EC50: read-out: HeLa-ACE2 CoV-2 EC50 GeoMean; for HeLa-ACE2 SI: selectivity index, uninfected HeLa-ACE2 CC50 / SARS-CoV-2 EC50
[2] = Uninfected HeLa-ACE2 24 h live/dead cytotoxicity counter screen; type: cell-based, human; details: human, uninfected HeLa-ACE2 cells, read-out: HeLa-ACE2 uninfected cytotoxicity CC50 GeoMean
HeLa-ACE2 cells [3] = test: as above; type: cell-based, human
SARS-CoV-2 [4] = test: microbe, parasite or virus in culture; type: cell-based; details: for Emax: Severe acute respiratory syndrome coronavirus 2, Calu-3, 48 h, read-out: Calu-3 CoV-2 Sinf Average; for EC50: read-out: Calu-3 CoV-2 EC50 GeoMean; for Calu-3 SI: selectivity index
SARS-CoV-2 [5] = test: microbe, parasite or virus in culture; type: cell-based; details: for Emax: Severe acute respiratory syndrome coronavirus 2, HeLa-ACE2, 10 h, read-out: HeLa-ACE2 TOA CoV-2 Sinf Average; for EC50: read-out: HeLa-ACE2 TOA CoV-2 EC50 GeoMean
HeLa-ACE2 cells [6] = test: cells; type: cell-based, human; details: Homo sapiens, HeLa-ACE2; read-out: HeLa-ACE2 TOA cell count EC50 GeoMean
Calu-3 cells [7] = details: for Calu-3 uninfected cytotoxicity Sinf Average: human, 48 h
HepG2 [8] = details: human, 72 h
HEK293T [9] = details: human, 72 h
HeLa-ACE2 cells [10] = test: cells; details: Homo sapiens; for Emax: HeLa-ACE2, 24 h, read-out: HeLa-ACE2 cell count Sinf Average
Calu-3 cells [11] = test: cells; details: Homo sapiens; for Emax: Calu-3, 48 h, read-out: Calu-3 cell count Sinf Average
in vitro = details: human, Calu-3 uninfected cytotoxicity CC50 GeoMean
HeLa-ACE2 cells [12] = test: Total cell count in the HeLa-ACE2 TOA (time of addition) assay; type: cell-based, human; details: for EC50: Homo sapiens, HeLa-ACE2, read-out: HeLa-ACE2 TOA cell count EC50 GeoMean
[13] = HepG2 72 h CellTiter-Glo cytotoxicity; details: human, HepG2 cells
HepG2 [14] = test: HepG2 72 h CellTiter-Glo cytotoxicity; details: 72 h
[15] = HEK293T 72 h CellTiter-Glo cytotoxicity; details: human, HEK293T cells
HEK293T [16] = test: HEK293T 72 h CellTiter-Glo cytotoxicity; details: 72 h
[17] = Uninfected Calu-3 48 h Cell-Titer Glo cytotoxicity counter screen; details: human, uninfected Calu-3 cells, Calu-3 uninfected cytotoxicity CC50 GeoMean
Calu-3 cells [18] = test: as above; details: human, uninfected Calu-3 cells, 48 h
SARS-CoV-2 [19] = type: cell-based; details: combination with remdesivir
[20] = curve plateau at infinite concentration
[21] = Severe acute respiratory syndrome coronavirus 2, HeLa-ACE2, detail block
[22] = Severe acute respiratory syndrome coronavirus 2, Calu-3, detail block
[23] = uninfected Calu-3 CC50 / Calu-3 SARS-CoV-2 EC50
[24] = TOA EC50 / HeLa-ACE2 SARS-CoV-2 EC50
[25] = HeLa-ACE2, read-out: HeLa-ACE2 cell count EC50 GeoMean, detail block
[26] = Calu-3, read-out: Calu-3 cell count EC50 GeoMean, detail block
[27] = Severe acute respiratory syndrome coronavirus 2, HeLa-ACE2, detail column
[28] = human, uninfected HeLa-ACE2 cells, 24 h
[29] = Severe acute respiratory syndrome coronavirus 2, Calu-3, detail column
[30] = uninfected Calu-3 CC50 / SARS-CoV-2 EC50
[31] = Severe acute respiratory syndrome coronavirus 2, HeLa-ACE2
[32] = HeLa-ACE2, read-out: HeLa-ACE2 cell count EC50 GeoMean
[33] = Calu-3, read-out: Calu-3 cell count EC50 GeoMean

COC(CNCC(C)C)COc1c(C)csc1C(=O)CCc1ccccc1 (stereo not drawn) [LG-6-101]
Emax (SARS-CoV-2 [1]; [20]): 100%
EC50 (SARS-CoV-2 [1]; [21]): 3.46 µM
CC50 at 24 h ([2]; detail block): > 35.6 µM
HeLa-ACE2 uninfected cytotoxicity Sinf Average (HeLa-ACE2 cells [3]; [20]): -100%
Emax (SARS-CoV-2 [4]; [20]): 83%
EC50 (SARS-CoV-2 [4]; [22]): > 9.98 µM
Calu-3 SI (SARS-CoV-2 [4]; [23]): 2.91
Emax (SARS-CoV-2 [5]; [20]): 100%
EC50 (SARS-CoV-2 [5]; [21]): > 9.18 µM
TOA:HeLa-ACE2 EC50 Ratio (SARS-CoV-2 [5]; [24]): 2.655
EC50 (HeLa-ACE2 cells [6]): > 9.59 µM
uninfected Calu-3 CC50 (Calu-3 cells [7]): > 29.079 ×÷ 1.048 (n=3) μM
Calu-3 uninfected cytotoxicity Sinf Average (Calu-3 cells [7]): -100%
HepG2 72-hour cytotoxicity Sinf Average (HepG2 [8]): -100%
HEK293T 72-hour cytotoxicty Sinf Average (HEK293T [9]): -100%
EC50 (HeLa-ACE2 cells [10]; [25]): > 9.59 µM
Emax (Calu-3 cells [11]): 100%
EC50 (Calu-3 cells [11]; [26]): > 9.98 µM
CC50 at 48 h (in vitro): > 29.1 µM

O=C(CCCN1CCN(c2ccc(F)cc2)CC1)NC1c2ccccc2CSc2ccccc21 (stereo not drawn) [Monatepil]
Emax (SARS-CoV-2 [1]; [20]): 100%
EC50 (SARS-CoV-2 [1]; [21]): > 7.79 µM
HeLa-ACE2 SI (SARS-CoV-2 [1]): > 5.01
CC50 at 24 h ([2]; detail block): > 39 µM
HeLa-ACE2 uninfected cytotoxicity Sinf Average (HeLa-ACE2 cells [3]; [20]): -100%
Emax (SARS-CoV-2 [4]; [20]): 100%
EC50 (SARS-CoV-2 [4]; [22]): > 9.98 µM
Emax (SARS-CoV-2 [5]; [20]): 100%
EC50 (SARS-CoV-2 [5]; [21]): 5.71 µM
TOA:HeLa-ACE2 EC50 Ratio (SARS-CoV-2 [5]; [24]): 0.732
EC50 (HeLa-ACE2 cells [6]): > 9.61 µM
uninfected Calu-3 CC50 (Calu-3 cells [7]): > 29.9 ×÷ 1.002 (n=4) μM
Calu-3 uninfected cytotoxicity Sinf Average (Calu-3 cells [7]): -100%
HEK293T 72-hour cytotoxicty Sinf Average (HEK293T [9]): -46%
EC50 (HeLa-ACE2 cells [10]; [25]): > 9.6 µM
Emax (Calu-3 cells [11]): -100%
EC50 (Calu-3 cells [11]; [26]): > 9.98 µM
CC50 at 48 h (in vitro): > 29.9 µM

OC(CNCC(O)C1CCc2cc(F)ccc2O1)C1CCc2cc(F)ccc2O1 (stereo not drawn) [Nebivolol HCl]
Emax (SARS-CoV-2 [1]): 99%
EC50 (SARS-CoV-2 [1]; [27]): 2.96 µM
HeLa-ACE2 SI (SARS-CoV-2 [1]): > 3.75
CC50 at 24 h [2]: > 11.1 µM
HeLa-ACE2 uninfected cytotoxicity Sinf Average (HeLa-ACE2 cells [3]; [28]): -103%
Emax (SARS-CoV-2 [4]): 100%
EC50 (SARS-CoV-2 [4]; [29]): > 8.69 µM
Calu-3 SI (SARS-CoV-2 [4]; [30]): < 1.57
TOA:HeLa-ACE2 EC50 Ratio (SARS-CoV-2 [5]): 0.619
Emax (SARS-CoV-2 [5]): 98%
EC50 (SARS-CoV-2 [5]; [31]): 1.83 µM
HeLa-ACE2 TOA cell count Sinf Average (HeLa-ACE2 cells [12]): 70%
EC50 (HeLa-ACE2 cells [12]): > 4.56 µM
Emax (HeLa-ACE2 cells [10]): 100%
EC50 (HeLa-ACE2 cells [10]; [32]): > 9.12 µM
EC50 (Calu-3 cells [11]; [33]): > 9.98 µM
CC50 at 72 h [13]: 7.62 µM
HepG2 72-hour cytotoxicity Sinf Average (HepG2 [14]): -99%
CC50 at 72 h [15]: 5.57 µM
HEK293T 72-hour cytotoxicty Sinf Average (HEK293T [16]): -106%
CC50 at 48 h [17]: 13.6 µM
Calu-3 uninfected cytotoxicity Sinf Average (Calu-3 cells [18]): -100%

CC(C)Oc1ccc(-c2nc(-c3cccc4c3CC[C@@H]4NCCO)no2)cc1C#N [Ozanimod]
Emax (SARS-CoV-2 [1]): 101%
EC50 (SARS-CoV-2 [1]; [27]): 2.63 µM
HeLa-ACE2 SI (SARS-CoV-2 [1]): > 5.60
CC50 at 24 h [2]: > 14.7 µM
HeLa-ACE2 uninfected cytotoxicity Sinf Average (HeLa-ACE2 cells [3]; [28]): -101%
Emax (SARS-CoV-2 [4]): 97%
EC50 (SARS-CoV-2 [4]; [29]): > 7.74 µM
Calu-3 SI (SARS-CoV-2 [4]; [30]): < 1.72
TOA:HeLa-ACE2 EC50 Ratio (SARS-CoV-2 [5]): 2.748
Emax (SARS-CoV-2 [5]): 100%
EC50 (SARS-CoV-2 [5]; [31]): > 7.24 µM
HeLa-ACE2 synergy score with remdesivi (SARS-CoV-2 [19]): -4.622 δ
EC50 (HeLa-ACE2 cells [12]): > 9.59 µM
uninfected Calu-3 CC50 (Calu-3 cells [7]): 13.319 ×÷ 1.347 (n=3) μM
Calu-3 uninfected cytotoxicity Sinf Average (Calu-3 cells [7]): -100%
HepG2 72-hour cytotoxicity Sinf Average (HepG2 [8]): -103%
HEK293T 72-hour cytotoxicty Sinf Average (HEK293T [9]): -100%
Emax (HeLa-ACE2 cells [10]): 100%
EC50 (HeLa-ACE2 cells [10]; [32]): > 8.74 µM
Emax (Calu-3 cells [11]): 100%
EC50 (Calu-3 cells [11]; [33]): > 9.98 µM
CC50 at 48 h (in vitro): 13.3 µM

N#Cc1ccc2c(c1)[C@H]1CN(CCCCNC(=O)c3ccc(-c4ccccc4)cc3)C[C@@H]1CO2 [S-33084]
Emax (SARS-CoV-2 [1]; [20]): 100%
EC50 (SARS-CoV-2 [1]; [21]): 3.91 µM
HeLa-ACE2 SI (SARS-CoV-2 [1]): > 6.34
CC50 at 24 h ([2]; detail block): > 24.8 µM
HeLa-ACE2 uninfected cytotoxicity Sinf Average (HeLa-ACE2 cells [3]; [20]): -100%
EC50 (SARS-CoV-2 [4]; [22]): > 9.98 µM
Calu-3 SI (SARS-CoV-2 [4]; [23]): 2.28
Emax (SARS-CoV-2 [5]; [20]): 100%
EC50 (SARS-CoV-2 [5]; [21]): 3.93 µM
TOA:HeLa-ACE2 EC50 Ratio (SARS-CoV-2 [5]; [24]): 1.005
EC50 (HeLa-ACE2 cells [6]): > 9.59 µM
uninfected Calu-3 CC50 (Calu-3 cells [7]): > 22.75 ×÷ 1.601 (n=3) μM
Calu-3 uninfected cytotoxicity Sinf Average (Calu-3 cells [7]): -100%
HepG2 72-hour cytotoxicity Sinf Average (HepG2 [8]): -100%
HEK293T 72-hour cytotoxicty Sinf Average (HEK293T [9]): -100%
EC50 (HeLa-ACE2 cells [10]; [25]): > 9.59 µM
EC50 (Calu-3 cells [11]; [26]): > 9.98 µM
CC50 at 48 h (in vitro): > 22.8 µM
